PMC10765884, “MC180295 is a highly potent and selective CDK9 inhibitor with preclinical in vitro and in vivo efficacy in cancer” (Clinical Epigenetics, 2024)
Where two headings read alike, the source gives them in different places.

Tests used:
CDK9 = molecular target: T1, CDK9 (Homo sapiens, UniProt P50750); test: CDK9 inhibitory activity of MC180295 and its enantiomers; assay type: biochemical; settings: Fig. S3E
T1 construct: purchased Reaction Biology Corp
Description: CDK enzymatic assays were performed by Reaction Biology Corp. (Malvern, PA), using 10 µM ATP for determining MC180295 IC50 values for each CDK family member for which assays were available. Kinase enzymatic assays were also performed by Nanosyn (Santa Clara, CA), using microfluidic technology and MC180295 IC50 curves against 10 CDKs. Selectivity against CDK9 was confirmed for the enantiomers at Reaction Biology Corp. (Malvern, PA).

[1] = Liver microsome stability assay; assay type: in vitro ADME, mouse; settings: pH 7.4; for remaining at 1 h, 1 µM: male, CD-1, pooled liver microsomes, Mouse liver microsomes, without NADPH, 60 min, read-out: Stability minus NADPH % Remaining @ 60 min; for half-life at 1 µM: pooled liver microsomes, Mouse (CD-1, male) liver microsomes
Description: (§1) Assays were conducted in 96-deep well polypropylene plates. In duplicate, test compounds (1 µM) were incubated in 0.5 mL of 100 mM potassium phosphate buffer (pH 7.4), with 0.5 mg/ml pooled liver microsomes (Life Technologies: CD-1 male mice # MSMCPL; SD male rat # RTMCPL; mixed gender human # HMMCPL. BD Genetest male beagle dog; # 452,601; male marmoset # 452,340), 2 mM tetra sodium NADPH, and 3 mM MgCl2, for 60 min in a Labnet® Vortemp incubator at 37 °C, with gentle shaking. At five time points, 75 µL of reaction mixtures were transferred on ice to a 96-shallow well stop plate containing 225 µL acetonitrile with 0.1 µM propafenone. […] Standard curves for test compounds were generated using 5 concentrations (in duplicate) that were processed as above but with no incubation time. Stop plates were centrifuged at 2000xg for 10 min in a Sorvall ST 16 centrifuge, and 170 µL of the supernatants transferred to a Waters® Aquity UPLC (Ultra Performance Liquid Chromatography) 700 µL 96-well sample plate with cap mat. A Waters® Aquity UPLC BEH C18 1.7 µM, 2.1 × 50 mm column, at 40 °C, was used to fractionate 5 µL samples, using a 3 min linear 5 to 95% acetonitrile gradient in 0.1% formic acid with a 0.75 mL/min flow rate. In tandem with UPLC, compound concentrations were analyzed using a Waters® TQ MS mass spectrometer in electrospray-positive mode (source temperature 150 °C; desolvation temperature 450 °C; desolvation flow rate of 900 L/hr). Cone voltages, collision energies, and quantitation were optimized and determined using Waters® QuanOptimize software, with propafenone as an internal standard. MC180379:CV 34; CE 34; mrm 359.15 > 114.91; MC180390 CV 34; CE 28; mrm 359.15 > 114.92. GraphPad® Prism v 5.04 was used for nonlinear fitting of time course data to generate t1/2 and CLint (intrinsic clearance) values.

[2] = Liver microsome stability assay; assay type: in vitro ADME, dog; settings: pooled liver microsomes, pH 7.4; for remaining at 1 h, 1 µM: male, beagle, Dog liver microsomes, without NADPH, 60 min, read-out: Stability minus NADPH % Remaining @ 60 min; for half-life at 1 µM: Dog (beagle, male) liver microsomes
Description: as §1, with “BD Genetest male beagle dog; # 452,601; male marmoset # 452,340), 2 mM tetra sodium NADPH, and 3 mM MgCl2, for 60 min in a Labnet® Vortemp incubator at 37 °C, with gentle shaking.” left out

[3] = Liver microsome stability assay; assay type: in vitro ADME; settings: pooled liver microsomes, pH 7.4, Cynomologous Monkey liver microsomes; for half-life at 1 µM: cynomolgus monkey; for remaining at 1 h, 1 µM: without NADPH, 60 min, read-out: Stability minus NADPH % Remaining @ 60 min
[4] = Liver microsome stability assay; assay type: in vitro ADME, human; settings: both sexes, pooled liver microsomes, pH 7.4; for half-life at 1 µM: Human (mixed gender) liver microsomes; for remaining at 1 h, 1 µM: Human liver microsomes, without NADPH, 60 min, read-out: Stability minus NADPH % Remaining @ 60 min
Description: as §1, with “BD Genetest male beagle dog; # 452,601; male marmoset # 452,340), 2 mM tetra sodium NADPH, and 3 mM MgCl2, for 60 min in a Labnet® Vortemp incubator at 37 °C, with gentle shaking.” left out

[5] = Rat hepatocyte stability assay; assay type: in vitro ADME; parameters: dose or concentration left out as unconfirmed; settings: cryopreserved primary hepatocytes; Rat (Sprague-Dawley) hepatocytes, male
Description: CLint (μL/min/10^6 cells) estimates were determined using a modified method of […] et al.. Cryopreserved rat (Sprague-Dawley) primary hepatocytes (4 male donors) (Life Tech product RTCS10) were rapidly thawed, diluted with Hank's balanced salt solution at 37 °C and centrifuged for 5 min at 100 × g. Resuspended cells were stained with 0.016% trypan blue and counted. Cell viability was > 80%. 0.25 mL of a 1 × 10^6 viable cells/ml cell suspension was added to 16-mm diameter wells of an uncoated polystyrene plate. The prewarmed plate was placed in a 37 °C incubator with 5% CO2 atmosphere, with 100 oscillations/min shaking. After 5 min, 0.25 mL of 2 μM test compound, in prewarmed HBSS, was added per well and mixed to start the reactions, with duplicate reactions per compound. Verapamil was used as a positive control, and cell-free reactions served as negative controls. At each time point (0, 5, 15, 30, 60, 90, and 120 min), 50 μL aliquots were transferred to a 96-well stop plate containing 200 μL/well acetonitrile: water (85:15), with 0.1% formic acid and 0.1 μM propafenone. The plate was centrifuged for 10 min at 2300 × g. 150 μL of the supernatant was transferred to a mass spectrometry sample plate. Samples were analyzed by UPLC/MS, as described in the microsome stability protocol. Results are expressed as t1/2 (min) and in vitro CLint (μL/min/10^6 cells).

T1 sequence (P50750 whole entry): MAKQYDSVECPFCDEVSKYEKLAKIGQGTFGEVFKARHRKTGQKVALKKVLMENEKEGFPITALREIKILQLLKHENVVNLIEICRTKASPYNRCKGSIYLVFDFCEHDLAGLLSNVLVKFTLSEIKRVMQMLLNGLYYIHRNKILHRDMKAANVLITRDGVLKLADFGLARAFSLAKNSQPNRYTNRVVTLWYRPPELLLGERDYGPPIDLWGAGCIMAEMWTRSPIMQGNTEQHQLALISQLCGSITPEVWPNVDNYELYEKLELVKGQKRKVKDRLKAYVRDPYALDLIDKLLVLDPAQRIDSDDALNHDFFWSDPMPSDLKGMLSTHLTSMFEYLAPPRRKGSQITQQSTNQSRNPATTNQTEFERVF
T1 sequence (O60563 whole entry partner): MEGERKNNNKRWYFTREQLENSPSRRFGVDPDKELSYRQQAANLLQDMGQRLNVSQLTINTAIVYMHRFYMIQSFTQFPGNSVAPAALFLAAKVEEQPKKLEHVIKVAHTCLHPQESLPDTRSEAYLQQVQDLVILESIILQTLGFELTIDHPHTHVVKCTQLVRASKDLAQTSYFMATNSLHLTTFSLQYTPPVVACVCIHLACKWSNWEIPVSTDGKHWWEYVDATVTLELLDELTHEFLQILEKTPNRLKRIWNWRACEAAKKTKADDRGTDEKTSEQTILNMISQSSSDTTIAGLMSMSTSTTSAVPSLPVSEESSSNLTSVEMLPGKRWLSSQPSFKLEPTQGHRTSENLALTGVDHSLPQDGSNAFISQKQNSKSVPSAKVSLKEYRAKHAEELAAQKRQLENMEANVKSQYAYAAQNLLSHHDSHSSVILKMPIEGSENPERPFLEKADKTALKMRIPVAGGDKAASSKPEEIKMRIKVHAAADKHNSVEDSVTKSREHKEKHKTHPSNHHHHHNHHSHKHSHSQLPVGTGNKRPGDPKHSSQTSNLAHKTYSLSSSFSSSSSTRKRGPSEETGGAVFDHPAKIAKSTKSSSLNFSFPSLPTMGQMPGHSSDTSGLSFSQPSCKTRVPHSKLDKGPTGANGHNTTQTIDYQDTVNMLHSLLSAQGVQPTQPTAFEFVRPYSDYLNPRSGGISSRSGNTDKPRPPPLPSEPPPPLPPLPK

| SMILES | IC50 (CDK9) [nM] | remaining at 1 h, 1 µM [1] [%] | half-life at 1 µM [1] [min] | remaining at 1 h, 1 µM [2] [%] | half-life at 1 µM [2] [min] | half-life at 1 µM [3] [min] | remaining at 1 h, 1 µM [3] [%] | half-life at 1 µM [4] [min] | remaining at 1 h, 1 µM [4] [%] | half-life [5] [min] |
| --- | --- | --- | --- | --- | --- | --- | --- | --- | --- | --- |
| Nc1nc(N[C@H]2C[C@@H]3CC[C@H]2C3)sc1C(=O)c1ccccc1[N+](=O)[O-] (relative stereo) [MC180295] | 11 | – | – | – | – | – | – | – | – | – |
| Nc1nc(N[C@@H]2C[C@H]3CC[C@@H]2C3)sc1C(=O)c1ccccc1[N+](=O)[O-] [MC180379] | 11 | 86 | 3.2 | 88 | 36.2 | 0.8 | 73 | 12.2 | 86 | 4.1 |
| Nc1nc(N[C@H]2C[C@@H]3CC[C@H]2C3)sc1C(=O)c1ccccc1[N+](=O)[O-] [MC180380] | 9 | 88 | 7.1 | 88 | 52.5 | 1.5 | 51 | 21.1 | 88 | 11.7 |
